The text below walks through data of patent US12384777B2 (Tay Therapeutics Limited, priority 2019, dated 2025).

One data set has as its target BRD4 BD1 (Homo sapiens (Human), UniProt O60885). As to the kind of experiment: Bromodomain binding assay (T7 phage display, qPCR), BRD4 BD1. Conditions: read-out: BRD4 BD1 Kd. How it is done: T7 phage strains displaying bromodomains were grown in parallel in 24-well blocks in an E. coli host derived from the BL21 strain. E. coli were grown to log-phase and infected with T7 phage from a frozen stock (multiplicity of infection=0.4) and incubated with shaking at 32° C. until lysis (90-150 min). The lysates were centrifuged (5,000×g) and filtered (0.2 μm) to remove cell debris. Streptavidin-coated magnetic beads were treated with biotinylated small molecule or acetylated peptide ligands for 30 min at RT to generate affinity resins for bromodomain assays. The ligated beads were blocked with excess biotin and washed with blocking buffer (SeaBlock (Pierce), 1% BSA, 0.05% Tween 20, 1 mM DTT) to remove unbound ligand and to reduce non-specific phage binding. Binding reactions were assembled by combining bromodomains, ligated affinity beads, and test compounds in 1× binding buffer (16% SeaBlock, 0.32×PBS, 0.02% BSA, 0.04% Tween 20, 0.004% Sodium azide, 7.9 mM DTT). Test compounds were prepared as 1000× stocks in 100% DMSO and subsequently diluted 1:25 in MEG. The compounds were then diluted directly into the assays such that the final concentrations of DMSO and MEG were 0.1% and 2.4%, respectively. All reactions were performed in polypropylene 384-well plates in a final volume of 0.02 ml. The assay plates were incubated at RT with shaking for 1 hr and the affinity beads were washed with wash buffer (1×PBS, 0.05% Tween 20). The beads were then re-suspended in elution buffer (1×PBS, 0.05% Tween 20, 2 μM non-biotinylated affinity ligand) and incubated at RT with shaking for 30 min. The bromodomain concentration in the eluates was measured by quantitative polymerase chain reaction (qPCR).
An 11-point 3-fold serial dilution of each test compound was prepared in 100% DMSO at 1000× final test concentration. All compounds were distributed by acoustic transfer (non-contact dispensing) in 100% DMSO. The compounds were then diluted directly into the assays such that the final concentration of DMSO was 0.09%. Most dissociation constants were determined using a compound top concentration=10,000 nM. If the initial dissociation constant determined was <0.169 nM (the lowest concentration tested), the measurement was repeated with a serial dilution starting at a lower top concentration.
The same bromodomain assay procedure as that outlined above was used. Example compounds were screened at 30 times their Kd, and results for primary screen binding interactions are reported as ‘% Ctrl’, where lower numbers indicate stronger hits in the matrix.

The test system of a further data set is human liver hepatocytes. The data set is described as follows: Intrinsic clearance in human liver hepatocytes. It is filed as in vitro ADME. Particulars: human cryopreserved hepatocytes, 0.5 μM test compound. The method, then:
Vials of human cryopreserved hepatocytes, supplied by Life Technologies, were thawed according to manufacturer's instructions and cells re-suspended in Williams Medium E (WME) containing cell maintenance supplement pack (CM4000, Life Technologies). Hepatocytes were incubated in suspension (0.5 million cells/mL) in 48 well non-collagen coated cell culture plates for 10 min at 37° C., 5% CO2. Upon addition of an equal volume of supplemented WME containing 1 μM test compound, an aliquot of incubation solution was removed to acetonitrile containing internal standard (final concentration 0.5 μM test compound and a cell density of 0.25 million cells/mL). Similarly, aliquots were removed at 3, 6, 9, 15, 30, 45, 60, 90 and 120 min. 100 μL of 80:20 water:acetonitrile was added to all samples and the analysis plate was centrifuged for 10 min at RT prior to injection and analysis of samples by UPLC-MS/MS. The response (area ratio of test compound to internal standard) was plotted against time using an exponential decay model from which rate of disappearance was calculated.

As a reminder, the Kd is a measure of binding affinity in units of concentration. For the molecule `Cn1ccc(-c2cn(C)c(=O)c3[nH]ccc23)c(Oc2ccc(O)cc2)c1=O` [Example 35, 4-(3-(4-hydroxyphenoxy)-1-methyl-2-oxo-1,2-dihydropyridin-4-yl)-6-methyl-1,6-dihydro-7H-pyrrolo[2,3-c]pyridin-7-one], the dissociation constant Kd at BRD4 BD1 fell in the range of 10 to 100 nM.

On to `Cn1ccc(-c2cn(C)c(=O)c3[nH]ccc23)c(Oc2ccccc2O)c1=O` [Example 31, 4-(3-(2-hydroxyphenoxy)-1-methyl-2-oxo-1,2-dihydropyridin-4-yl)-6-methyl-1,6-dihydro-7H-pyrrolo[2,3-c]pyridin-7-one], for which the Kd at BRD4 BD1 was 10 to 100 nM. Moreover, the “Intrinsic clearance, % Liver Blood Flow” value in the data set with human liver hepatocytes is under 34 % Liver Blood Flow.

On to `Cn1cc(Oc2ccccc2O)c(-c2cn(C)c(=O)c3[nH]ccc23)cc1=O` [Example 22, 4-(5-(2-hydroxyphenoxy)-1-methyl-2-oxo-1,2-dihydropyridin-4-yl)-6-methyl-1,6-dihydro-7H-pyrrolo[2,3-c]pyridin-7-one], for which the Kd on BRD4 BD1 was in the range of 100 to 1000 nM. The “Intrinsic clearance, % Liver Blood Flow” value with human liver hepatocytes is given as under 34 % Liver Blood Flow.

Consider `COC1CCC(Oc2ccc(O)cc2-c2cn(C)c(=O)c3[nH]ccc23)CC1` (stereo not shown) [Example 12, 4-(5-hydroxy-2-((4-methoxycyclohexyl)oxy)phenyl)-6-methyl-1,6-dihydro-7H-pyrrolo[2,3-c]pyridin-7-one], for which the equilibrium dissociation constant (Kd) on BRD4 BD1 was at most 10 nM. Besides, in the data set with human liver hepatocytes, the “Intrinsic clearance, % Liver Blood Flow” value is listed as 82 % Liver Blood Flow.

For `Cn1cc(-c2cc(O)ccc2OC2CCCCC2)c2cc[nH]c2c1=O` [Example 11, 4-(2-(cyclohexyloxy)-5-hydroxyphenyl)-6-methyl-1,6-dihydro-7H-pyrrolo[2,3-c]pyridin-7-one], the dissociation constant Kd at BRD4 BD1 was at most 10 nM. Also, the “Intrinsic clearance, % Liver Blood Flow” value in the data set with human liver hepatocytes is on record as 97 % Liver Blood Flow.

Turning to `Cn1cc(-c2ccn(C)c(=O)c2Oc2ccc(O)cc2)ccc1=O` [Example 38, 3′-(4-hydroxyphenoxy)-1,1′-dimethyl-[3,4′-bipyridine]-2′,6(1H,1′H)-dione], on BRD4 BD1, the Kd lay in the range of 100 to 1000 nM.

As for `COc1cccc(Oc2c(-c3cn(C)c(=O)c4[nH]ccc34)ccn(C)c2=O)c1` [Example 32, 4-(3-(3-methoxyphenoxy)-1-methyl-2-oxo-1,2-dihydropyridin-4-yl)-6-methyl-1,6-dihydro-7H-pyrrolo[2,3-c]pyridin-7-one], at BRD4 BD1, the Kd is 10 to 100 nM. The “Intrinsic clearance, % Liver Blood Flow” value in the data set with human liver hepatocytes was under 34 % Liver Blood Flow.

On to `Cn1cc(-c2cc(=O)n(C)cc2Oc2cccc(O)c2)ccc1=O` [Example 29, 5′-(3-hydroxyphenoxy)-1,1′-dimethyl-[3,4′-bipyridine]-2′,6(1H,1′H)-dione], for which, at BRD4 BD1, the Kd is 10 to 100 nM. In the data set with human liver hepatocytes, the “Intrinsic clearance, % Liver Blood Flow” value is recorded as under 34 % Liver Blood Flow.

Take `Cn1cc(-c2ccn(C)c(=O)c2Oc2ccccc2O)ccc1=O` [Example 36, 3′-(2-hydroxyphenoxy)-1,1′-dimethyl-[3,4′-bipyridine]-2′,6(1H,1′H)-dione]: on BRD4 BD1, the Kd lay within 100 to 1000 nM.

On to `COc1cccc(Oc2cn(C)c(=O)cc2-c2cn(C)c(=O)c3[nH]ccc23)c1` [Example 23, 4-(5-(3-methoxyphenoxy)-1-methyl-2-oxo-1,2-dihydropyridin-4-yl)-6-methyl-1,6-dihydro-7H-pyrrolo[2,3-c]pyridin-7-one], for which the equilibrium dissociation constant (Kd) at BRD4 BD1 fell in the range of 10 to 100 nM. Moreover, the “Intrinsic clearance, % Liver Blood Flow” value in the data set on human liver hepatocytes worked out at 38 % Liver Blood Flow.

In the case of `Cn1cc(-c2scnc2Oc2ccccc2O)c2cc[nH]c2c1=O` [Example 19, 4-(4-(2-hydroxyphenoxy)thiazol-5-yl)-6-methyl-1,6-dihydro-7H-pyrrolo[2,3-c]pyridin-7-one], at BRD4 BD1, the Kd is 100 to 1000 nM.

Regarding `COc1ccc(Oc2c(-c3cn(C)c(=O)c4[nH]ccc34)ccn(C)c2=O)cc1` [Example 34, 4-(3-(4-methoxyphenoxy)-1-methyl-2-oxo-1,2-dihydropyridin-4-yl)-6-methyl-1,6-dihydro-7H-pyrrolo[2,3-c]pyridin-7-one], the Kd on BRD4 BD1 was 10 to 100 nM. Besides, the “Intrinsic clearance, % Liver Blood Flow” value with human liver hepatocytes was under 34 % Liver Blood Flow.

On to `COc1ccc(Oc2cn(C)c(=O)cc2-c2cn(C)c(=O)c3[nH]ccc23)cc1` [Example 25, 4-(5-(4-methoxyphenoxy)-1-methyl-2-oxo-1,2-dihydropyridin-4-yl)-6-methyl-1,6-dihydro-7H-pyrrolo[2,3-c]pyridin-7-one], for which, at BRD4 BD1, the Kd is 10 to 100 nM. Moreover, the “Intrinsic clearance, % Liver Blood Flow” value in the data set on human liver hepatocytes turned out to be 38 % Liver Blood Flow.

Regarding `Cn1cc(-c2ncnn2Cc2ccccc2)c2cc[nH]c2c1=O` [Example 16, 4-(1-benzyl-1H-1,2,4-triazol-5-yl)-6-methyl-1,6-dihydro-7H-pyrrolo[2,3-c]pyridin-7-one], the equilibrium dissociation constant (Kd) at BRD4 BD1 lay within 100 to 1000 nM.

For `Cn1cc(-c2scnc2Oc2ccccc2O)ccc1=O` [Example 21, 5-(4-(2-hydroxyphenoxy)thiazol-5-yl)-1-methylpyridin-2(1H)-one], the Kd on BRD4 BD1 lay within 100 to 1000 nM.

For `Cn1cc(-c2ccn(C)c(=O)c2Oc2cccc(O)c2)ccc1=O` [Example 37, 3′-(3-hydroxyphenoxy)-1,1′-dimethyl-[3,4′-bipyridine]-2′,6(1H,1′H)-dione], on BRD4 BD1, the Kd was in the range of 100 to 1000 nM.

`CCCOc1ccc(O)cc1-c1cn(C)c(=O)c2[nH]ccc12` [Example 9, 4-(5-hydroxy-2-propoxyphenyl)-6-methyl-1,6-dihydro-7H-pyrrolo[2,3-c]pyridin-7-one]: the dissociation constant Kd at BRD4 BD1 lay in the range of 10 to 100 nM. Besides, the “Intrinsic clearance, % Liver Blood Flow” value in the data set with human liver hepatocytes is 95 % Liver Blood Flow.

With `Cn1cc(-c2nccn2Cc2ccccc2)c2cc[nH]c2c1=O` [Example 15, 4-(1-benzyl-1H-imidazol-2-yl)-6-methyl-1,6-dihydro-7H-pyrrolo[2,3-c]pyridin-7-one], the dissociation constant (Kd) at BRD4 BD1 is 100 to 1000 nM.

`Cn1cc(-c2cc(=O)n(C)cc2Oc2ccc(O)cc2)ccc1=O` [Example 28]: on BRD4 BD1, the dissociation constant Kd fell in the range of 100 to 1000 nM. Further, the “Intrinsic clearance, % Liver Blood Flow” value in the data set on human liver hepatocytes is recorded as under 34 % Liver Blood Flow.

For `Cn1cc(-c2scnc2Cc2ccccc2)c2cc[nH]c2c1=O` [Example 17, 4-(4-benzylthiazol-5-yl)-6-methyl-1,6-dihydro-7H-pyrrolo[2,3-c]pyridin-7-one], the Kd at BRD4 BD1 lay within 10 to 100 nM.

In the case of `Cn1cc(-c2ccnn2Cc2ccccc2)c2cc[nH]c2c1=O` [Example 14, 4-(1-benzyl-1H-pyrazol-5-yl)-6-methyl-1,6-dihydro-7H-pyrrolo[2,3-c]pyridin-7-one], the Kd on BRD4 BD1 is 100 to 1000 nM.

As to `Cn1cc(Oc2ccc(O)cc2)c(-c2cn(C)c(=O)c3[nH]ccc23)cc1=O` [Example 26, 4-(5-(4-hydroxyphenoxy)-1-methyl-2-oxo-1,2-dihydropyridin-4-yl)-6-methyl-1,6-dihydro-7H-pyrrolo[2,3-c]pyridin-7-one], at BRD4 BD1, the Kd fell in the range of 10 to 100 nM. The “Intrinsic clearance, % Liver Blood Flow” value in the data set on human liver hepatocytes is reported as under 34 % Liver Blood Flow.

In the case of `COc1ccccc1Oc1c(-c2cn(C)c(=O)c3[nH]ccc23)ccn(C)c1=O` [Example 30, 4-(3-(2-methoxyphenoxy)-1-methyl-2-oxo-1,2-dihydropyridin-4-yl)-6-methyl-1,6-dihydro-7H-pyrrolo[2,3-c]pyridin-7-one], at BRD4 BD1, the equilibrium dissociation constant (Kd) was 10 to 100 nM. The “Intrinsic clearance, % Liver Blood Flow” value with human liver hepatocytes is listed as under 34 % Liver Blood Flow.

With `COc1ccc(Oc2cn(C)c(=O)cc2-c2ccc(=O)n(C)c2)cc1` [Example 27, 5′-(4-methoxyphenoxy)-1,1′-dimethyl-[3,4′-bipyridine]-2′,6(1H,1′H)-dione], the equilibrium dissociation constant (Kd) at BRD4 BD1 was 100 to 1000 nM. In the data set with human liver hepatocytes, the “Intrinsic clearance, % Liver Blood Flow” value was under 34 % Liver Blood Flow.

Take `Cn1cc(Cc2ccccc2)c(-c2cn(C)c(=O)c3[nH]ccc23)cc1=O` [Example 13, 4-(5-benzyl-1-methyl-2-oxo-1,2-dihydropyridin-4-yl)-6-methyl-1,6-dihydro-7H-pyrrolo[2,3-c]pyridin-7-one]: the Kd on BRD4 BD1 was in the range of 100 to 1000 nM. In addition, in the data set on human liver hepatocytes, the “Intrinsic clearance, % Liver Blood Flow” value is 34 % Liver Blood Flow.
